# Target: Aβ1-40 peptide monomer (Homo sapiens, UniProt P05067)
# Format: biochemical
# Settings: 50 μM test compound, 20 μM Aβ1-40 monomer, 4 μM pre-formed sonicated Aβ1-40 fibrils, pH 7.4, two hours at 37° C., HPLC
# Experimental: The activity of the disclosed compounds is assessed according to the procedure reported below. An Aβ1-40 peptide monomer stock solution is prepared by dissolving the peptide in dimethylsulfoxide at a concentration of 33.33 mg/mL. The stock solution is further diluted 1 to 11.5 with dimethylsulfoxide. This solution is then diluted with 10 mM phosphate buffer pH 7.4 containing 150 mM sodium chloride to prepare the test solution. To an eppendorf tube containing 47 μL of Aβ1-40 peptide monomer solution are added 3 μL of a 830 μM water solution of the test compound containing 66.4 μM, based on the Aβ1 -40 monomer content, of pre-formed sonicated Aβ1-40 fibrils: the resulting solution is 20 μM in Aβ1-40 monomer, 50 μM in the test compound and contains 4 μM, based on the Aβ1-40 monomer content, of pre-formed sonicated Aβ1-40 fibrils. The aggregation is allowed to proceed for two hours at 37° C. The suspension is then centrifuged at 15000 rpm for 15 minutes at +4° C., the supernatant is collected and the Aβ1 -40 monomer is quantitated by HPLC. The activity is expressed as the percent of inhibition of the aggregation of a 20 μM Aβ1-40 monomer solution stimulated by 4 μM, based on the Aμ1-40 monomer content, pre-formed sonicated Aμ1-40 fibrils.
# Aβ1-40 peptide monomer, sequence (P05067 672-711 limits assumed): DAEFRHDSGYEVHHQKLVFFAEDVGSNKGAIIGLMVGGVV
row,Structure (SMILES),% inhibition (of the aggregation of Aβ1-40 monomer) [%]
1,"CCON=C1CC2NC1(C)Cc1c(O)c3c(c(O)c12)C(=O)c1c(OC)cccc1C3=O (single isomer, unassigned) [lac-I, Anthrazalone O-ethyloxime]",54.2
2,"COc1ccc(CN2C3CC(=NO)C2(C)Cc2c(O)c4c(c(O)c23)C(=O)c2c(OC)cccc2C4=O)cc1OC (stereo not drawn) [Compound 1a, 8-N-(3,4-dimethoxybenzyl) anthrazalone oxime]",22.9
3,"C=CCN1C2CC(=NOC)C1(C)Cc1c(O)c3c(c(O)c12)C(=O)c1c(OC)cccc1C3=O (stereo not drawn) [Compound 1c, 8-N-allylanthrazalone O-methyl-oxime]",36.0
4,"CON=C1CC2c3c(O)c4c(c(O)c3CC1(C)N2Cc1ccc(OC)c(OC)c1)C(=O)c1cccc(OC)c1C4=O (stereo not drawn) [Compound 1e, 8-N-(3.4-dimethoxybenzyl)anthrazalone O-methyloxime]",26.2
5,"CON=C1CC2c3c(O)c4c(c(O)c3CC1(C)N2Cc1ccncc1)C(=O)c1cccc(OC)c1C4=O (stereo not drawn) [Compound 1p, 8-N-(4-pyridylmethyl)anthrazalone O-methyloxime]",31.7
6,"COc1cccc2c1C(=O)c1c(O)c3c(c(O)c1C2=O)CC1(C)C(=NOCc2ccccc2)CC3N1Cc1ccncc1 (stereo not drawn) [Compound 1q, 8-N-(4-pyridylmethyl)anthrazalone O-benzyloxime]",24.2

# From patent US6194422A, “Anthracycline derivatives” (Pharmacia & Upjohn SpA, priority 1997, dated 2001)
